Molecules are shown by their SMILES. Read-outs that look alike come from different tables or passages of the source. Some results are limits rather than exact numbers.

The text below walks through data of patent EP0844825B1, “INSECTICIDAL N-(SUBSTITUTED ARYLMETHYL)-4- BIS(SUBSTITUTED PHENYL OR PYRIDYL)METHYL]PIPERIDINES” (FMC CORPORATION, priority 1995, dated 1996).

Assay [1] concerns beet armyworm (Spodoptera exigua [Hubner]). Put plainly: Foliar spray test on chick pea plants, beet armyworm, 96 hour exposure. The following applies: rate of application 100 ppm, dead plus moribund insects, * = average of more than one test. In kind it is in vivo. The method, then:
(§1) Candidate insecticides with high pl50 values from the diet test were tested for insecticidal activity in foliar evaluations against tobacco budworm, beet armyworm (Spodoptera exigua [Hubner]), and cabbage looper (Trichoplusia ni [Hubner])
(§2) In these tests against tobacco budworm and beet armyworm, nine-day-old chick pea plants (Cicer arietinum) were sprayed at 20 psi to runoff on both upper and lower leaf surfaces with solutions of test chemical to provide application rates as high as 1000 ppm of test chemical. The solvent used to prepare the solutions of test chemical was 10% acetone or methanol (v/v) and 0.1% of the surfactant octylphenoxypolyethoxyethanol in distilled water. Four replicates, each containing one chick pea plant, for each rate of application of test chemical were sprayed. The treated plants were transferred to a hood, where they were kept until the spray had dried.
(§3) The four chick pea plants for each replicate treated with test chemical as described above were removed from their pots by cutting the stems just above the soil line. The excised leaves and stems from the four plants in each replicate were placed in individual 8-ounce paper cups, each containing a moistened filter paper. Five second-instar (6 days old) tobacco budworms or beet armyworms (7-8 days old) were counted into each cup, taking care not to cause injury. An opaque plastic lid was placed on each cup, which was then held in a growth chamber for a 96 hour exposure period at 25°C and 50% relative humidity. At the end of the 96 hour exposure period the cups were opened, and the numbers of dead, moribund, and live insects were counted. Using the insect counts, the efficacy of the test chemical was expressed in percent control. Percent control is derived from the total number of dead insects (TD) plus the total number of moribund insects (TM) as compared to the total number of insects (TI) in the test: % Control =(TD+TM)/(TI)x 100 [formula]
(§4) The condition of the test plants was also observed for phytotoxicity and for reduction of feeding damage as compared to an untreated control.

In assay [2] the test system is cabbage looper (Trichoplusia ni [Hubner]). Put plainly: Foliar spray test on pinto bean plants, cabbage looper, 96 hour exposure. In kind it is in vivo. The following applies: rate of application 100 ppm, dead plus moribund insects, * = average of more than one test. The method, then:
as §1, §2, §3, §4
Foliar tests with cabbage looper were conducted in the same manner as described above, the difference being that pinto bean plants (Phaseolus vulgaris) were used in place of chick pea plants.

Assay [3] concerns tobacco budworm (Heliothis virescens [Fabricius]). Put plainly: Diet test: test chemical incorporated into artificial diet of tobacco budworm larvae, 5-day exposure. It counts as in vivo. The following applies: for IC50 / LC50 / mortality at 100 µM / pest or weed control at 100 µM: Heliothis virescens, 120 h; for LC50: read-out: pLC50 (converted); for mortality at 100 µM / pest or weed control at 100 µM: feed or water; for mortality at 100 µM: read-out: Percent Mortality; for pest or weed control at 100 µM / Percent Growth Inhibition: rate of application 4 (negative log of molar concentration in the diet), second instar larvae, 25°C; for pest or weed control at 100 µM: read-out: Percent Growth Inhibition.

Assay [4] relates to tobacco budworm (Heliothis veriscens [Fabricius]). Put plainly: Foliar spray test on chick pea plants, tobacco budworm, 96 hour exposure. It counts as in vivo, Heliothis virescens. The following applies: rate of application 100 ppm, dead plus moribund insects, * = average of more than one test. How it is done:
as §1, §2, §3, §4

The mark [5] stands for this setting: negative log of the concentration that provides 50% growth inhibition, by linear regression, 5 days, * = average of more than one test, read-out: pl50 (converted).
Setting [6] is: negative log of the concentration that provides 50% mortality, 5 days, * = average of more than one test.
The mark [7] stands for this setting: 5 days, * = average of more than one test.
The mark [8] stands for this setting: negative log of the concentration that provides 50% growth inhibition, by linear regression, 5 days, * = average of more than one test.

Take `COc1ccc(CN2CCC(C(O)(c3ccc(OC(F)(F)F)cc3)c3ccc(OC(F)(F)F)cc3)CC2)cc1` [Compound 1, N-(4-methoxyphenylmethyl)-4-[bis(4-trifluoromethoxyphenyl)hydroxymethyl]piperidine]: the “Percent Control BAW” value in assay [1] amounted to 55%. Further, the “Percent Control CL” value in assay [2] was found to be 100%. Also, in assay [3] (setting [5]), the IC50 was 794 nM. Also, the LC50 in assay [3] (setting [6]) was 25100 nM. In addition, the mortality at 100 µM in assay [3] was found to be 100%. Moreover, the pest or weed control at 100 µM in assay [3] (setting [7]) came to 100%. In assay [4], the “Percent Control TBW” value came out at 80%.

Take `Cn1nnc(-c2ccc(CN3CCC(C(O)(c4ccc(OC(F)(F)F)cc4)c4ccc(OC(F)(F)F)cc4)CC3)cc2)n1` [Compound 9, N-[4-(2-methyl-2H-tetrazol-5-yl)phenylmethyl]-4-[bis(4-trifluoromethoxyphenyl)hydroxymethyl]piperidine]: the “Percent Control BAW” value in assay [1] came out at 100%. Besides, in assay [2], the “Percent Control CL” value was 100%. Besides, the IC50 in assay [3] (setting [5]) was ≤ 316 nM. Also, in assay [3] (setting [6]), the LC50 is 2510 nM. Further, the mortality at 100 µM in assay [3] was 100%. In assay [3] (setting [7]), the pest or weed control at 100 µM is 100%. The compound also gave a pl50 in assay [3] (setting [8]) of 6.6. Also, the “Percent Control TBW” value in assay [4] was determined as 100%.

As to `Cn1nnc(-c2ccc(CN3CCC(C(O)(c4ccc(C(F)(F)F)cc4)c4ccc(C(F)(F)F)cc4)CC3)cc2)n1` [Compound 31, N-[4-(2-methyl-2H-tetrazol-5-yl)phenylmethyl]-4-[bis(4-trifluoromethylphenyl)hydroxymethyl]piperidine], the “Percent Control BAW” value in assay [1] is on record as 100* %. Besides, the “Percent Control CL” value in assay [2] was found to be 100%. The IC50 in assay [3] (setting [5]) is ≤ 316 nM. For the same compound, the LC50 in assay [3] (setting [6]) is 2510 nM. Moreover, the mortality at 100 µM in assay [3] stood at 100%. For the same compound, in assay [3] (setting [7]), the pest or weed control at 100 µM turned out to be 100%. Moreover, the “Percent Control TBW” value in assay [4] is 100%.

In the case of `Cn1nnc(-c2ccc(C[N+]3([O-])CCC(C(O)(c4ccc(C(F)(F)F)cc4)c4ccc(C(F)(F)F)cc4)CC3)cc2)n1` (centres unmarked) [Compound 32, N-[4-(2-methyl-2H-tetrazol-5-yl)phenylmethyl]-4-[bis(4-trifluoromethylphenyl)hydroxymethyl]piperidine N-oxide], the “Percent Control BAW” value in assay [1] is listed as 100* %. Besides, the “Percent Control CL” value in assay [2] was 100%. The IC50 in assay [3] (setting [5]) is ≤ 316 nM. Further, the LC50 in assay [3] (setting [6]) is 2510 nM. In addition, the mortality at 100 µM in assay [3] was found to be 100%. Moreover, the pest or weed control at 100 µM in assay [3] (setting [7]) amounted to 100%. Besides, the “Percent Control TBW” value in assay [4] stood at 100%.

Turning to `CCn1nnc(-c2ccc(CN3CCC(C(O)(c4ccc(C(F)(F)F)cc4)c4ccc(C(F)(F)F)cc4)CC3)cc2)n1` [Compound 33], in assay [1], the “Percent Control BAW” value is recorded as 100%. The “Percent Control CL” value in assay [2] was determined as 95%. The IC50 in assay [3] (setting [5]) is ≤ 316 nM. In assay [3] (setting [6]), the LC50 was 794 nM. In assay [3], the mortality at 100 µM worked out at 100%. For the same compound, the pl50 in assay [3] (setting [8]) is reported as 6.6. Further, the “Percent Growth Inhibition” value in assay [3] (setting [7]) is 99%. Besides, in assay [4], the “Percent Control TBW” value is 100%.

With `CCn1nnc(-c2ccc(C[N+]3([O-])CCC(C(O)(c4ccc(C(F)(F)F)cc4)c4ccc(C(F)(F)F)cc4)CC3)cc2)n1` (centres unmarked) [Compound 34], in assay [1], the “Percent Control BAW” value amounted to 100%. For the same compound, the “Percent Control CL” value in assay [2] turned out to be 100%. For the same compound, the IC50 in assay [3] (setting [5]) is ≤ 316 nM. In addition, in assay [3] (setting [6]), the LC50 was 1260 nM. Also, the mortality at 100 µM in assay [3] was 100%. For the same compound, the “Percent Growth Inhibition” value in assay [3] (setting [7]) was 100%. Also, in assay [4], the “Percent Control TBW” value is given as 100%.

Regarding `OC(c1ccc(C(F)(F)F)cc1)(c1ccc(C(F)(F)F)cc1)C1CCN(Cc2ccc(-c3ncccn3)cc2)CC1` [Compound 100], the mortality at 100 µM in assay [3] was found to be 100%.

For the compound `[O-][N+]1(Cc2ccc(-c3ncccn3)cc2)CCC(C(O)(c2ccc(C(F)(F)F)cc2)c2ccc(C(F)(F)F)cc2)CC1` (centres unmarked) [Compound 101], the mortality at 100 µM in assay [3] came to 100%.

For `CCCOc1ccc(CN2CCC(C(O)(c3ccc(C(F)(F)F)cc3)c3ccc(C(F)(F)F)cc3)CC2)cc1` [Compound 102], in assay [1], the “Percent Control BAW” value was 100* %. For the same compound, in assay [2], the “Percent Control CL” value is 100* %. Moreover, in assay [3], the LC50 is 3160 nM and the mortality at 100 µM turned out to be 100%. For the same compound, the IC50 in assay [3] (read-out: pl50) was < 1000 nM. For the same compound, the “Percent Growth Inhibition” value in assay [3] (setting [7]) worked out at 100%. Besides, the “Percent Control TBW” value in assay [4] is recorded as 98* %.

Take `OC(c1ccc(OC(F)(F)F)cc1)(c1ccccc1OC(F)(F)F)C1CCN(Cc2ccc(C3OCCO3)cc2)CC1` (centres unmarked) [Compound 103, N-[4-(1,3-dioxolan-2-yl)phenylmethyl]-4-[(4-trifluoromethoxyphenyl)(2-trifluoromethoxyphenyl)hydroxymethyl]piperidine]: in assay [3] (setting [5]), the IC50 is ≤ 316 nM. Further, in assay [3] (setting [6]), the LC50 was 12600 nM. For the same compound, the mortality at 100 µM in assay [3] stood at 100%. Also, the pest or weed control at 100 µM in assay [3] (setting [7]) stood at 100%.

With `CCn1nnc(-c2ccc(CN3CCC(C(O)(c4ccc(C(F)(F)F)cn4)c4ccc(C(F)(F)F)cn4)CC3)cc2)n1` [Compound 104], in assay [3] (setting [5]), the IC50 is ≤ 316 nM. In assay [3] (setting [6]), the LC50 was 398 nM. The mortality at 100 µM in assay [3] stood at 100%. In assay [3] (setting [8]), this compound had a pl50 of 6.8. For the same compound, the “Percent Growth Inhibition” value in assay [3] (setting [7]) is given as 100%.

The mortality is the percentage killed.
